Measured values reported in patent US20120020989A1, “METHODS OF TREATING COLORECTAL CANCER” (KYOWA HAKKO KIRIN CO., LTD., priority 2010, published 2012).

Legend:
LS174T [1] = assay: Nude rat LS174T subcutaneous xenograft model, tumor volume
LS174T [2] = assay: SCID mouse LS174T intraperitoneal xenograft model, surviving period; format: in vivo; settings: LS174T i.p., CPT-11 10 mg/kg; for surviving period median (median survival time: MST): N26 antibody 5 mg/kg, 5-FU 50 mg/kg, caudal vein once a week x4, adjuvant group 24 days; for prolongation of surviving period in comparison with the adjuvant alone group: log-rank test, N26 5 mg/kg, 5-FU 50 mg/kg once a week x4
Description: (1) SCID mouse and colorectal cancer cell line
SCID mice (C.B-17/Icr-scid, female, 6-weeks old) were purchased from CLEA Japan Inc. and reared in an SPF (specific pathogen free) equipment.
A colorectal cancer-derived cell line LS174T (purchased from ATCC) was used as the tumor cell and cultured using RPMI 1640 medium (manufactured by GIBCO, Invitrogen) containing 10% FBS (manufactured by HyClone) and 1% penicillin-streptomycin (manufactured by GIBCO, Invitrogen).
A xenograft model was prepared by intraperitoneally transplanting the cultured LS174T cell into the SCID mouse at a dose of 1×10^7 cells/200 μl/head.
An anti-A33 human antibody (KRN330) (hereinafter referred to as N26 antibody) comprising the heavy chain variable region represented by SEQ ID NO:23 and the light chain variable region represented by SEQ ID NO:25 was used as an anti-A33 human antibody.
5-FU (5FU Injection 250 Kyowa) was obtained from Kyowa Hakko Kirin Co., Ltd. and CPT-11 (Campto (registered trademark) Injection or Irinotecan Hydrochloride Injection) was obtained from YAKULT HONSHA CO., LTD. In the control group, a dilution medium of the anti-A33 human antibody (10 mM of sodium L-glutamate, 262 mM of D-sorbitol and 0.05 mg/ml of polysorbate 80, pH 5.5) was used.
Administration schedules of agents are shown in FIG. (A)(a) and FIG. 1(B)(a), respectively. After transplanting the cultured LS174 cell into the abdominal cavity of SCID mice on day 0, their body weights were measured on the next day of the transplantation (on day 1) to divide them into six groups in such a manner that the average body weight of each group became equal (A, B, E and F groups=seven animals per group, C and D groups=six animals per group).
The grouping day was regarded as the initial administration day, and thereafter, 5 mg/kg of an anti-A33 human antibody, 10 mg/kg of CPT-11 (irinotecan) or 50 mg/kg of 5-FU was administered into the mouse caudal vein at a dose of 10 ml/kg, four times (on day 1, day 8, day 15 and day 22) at a frequency of once a week, and the surviving period was monitored. On the same day of the drug administration, an adjuvant was intravenously administered to the control group.
Survival curve of each administration group was plotted by the Kaplan-Meier method and the survival curves of each group were compared using log-rank test, with the results shown in FIG. 1(A)(b) and FIG. 1(A)(c) and FIG. 1(B)(b) and FIG. 1(B)(c). In this connection, though the results of FIG. 1(A)(b) and FIG. 1(A)(c) and FIG. 1(B)(b), and FIG. 1(B)(c) are separately shown, these were carried out in the same test, and results of the control group and the N26 antibody (5 mg/kg) group in FIG. 1(A)(b) and FIG. 1(A)(c) are identical to those in FIG. 1(B)(b) and FIG. 1(B)(c).

| SMILES | antitumor effect (tumor volume), FIG. 2(b) (LS174T [1]; nude rat LS174T s.c., N26 5 mg/kg, oxaliplatin 15 mg/kg, i.v. day 0, 7, 14, 21) | body weight loss (LS174T [1]; nude rat, oxaliplatin 15 mg/kg administration group) | surviving period median (median survival time: MST) (LS174T [2]) [days] | prolongation of surviving period in comparison with the adjuvant alone group (LS174T [2]) | antitumor effect (tumor volume), FIG. 2(a) (LS174T [1]; nude rat LS174T s.c., N26 5 mg/kg, 5-FU 100 mg/kg, i.v. day 0, 7, 14, 21) |
| --- | --- | --- | --- | --- | --- |
| O=C1[O][Pt]2([NH][C@@H]3CCCC[C@H]3[NH]2)[O]C1=O [oxaliplatin] | slight antitumor effect | significant body weight loss |  |  |  |
| CCc1c2c(nc3ccc(OC(=O)N4CCC(N5CCCCC5)CC4)cc13)-c1cc3c(c(=O)n1C2)COC(=O)[C@]3(O)CC [CPT-11, irinotecan] |  |  | 41 | significant prolongation of surviving period |  |
| O=c1[nH]cc(F)c(=O)[nH]1 [5-FU, 5-fluorouracil] |  |  | 24 | prolongation of surviving period was not found | significant antitumor effect |
